Experiments:
[1] = tested on: Bax/Bcl-2; experiment: Western blot, Bax/Bcl-2 ratio in HepG2 cells; format: cell-based; conditions: 24 h, high concentration (sagittatoside A 49, icariside I 50, baohuoside I 32, icaritin 3.8 μg/mL), vs untreated cells
Experimental: (§1) To explore the mechanism of apoptosis induced by the hepatotoxic compounds, the expression of key proteins related to apoptosis, including Bax, Bcl-2, Caspase-3 and Caspase-9, was assessed by western blotting. HepG2 cells were treated with different concentrations of the hepatotoxic compounds for 24 h and collected with a cell scraper. The concentrations of sagittatoside A were set to 12.2, 24.5, and 49 μg/mL; those of icariside I were 12.5, 25, and 50 μg/mL; baohuoside I was used at 8, 16, and 32 μg/mL; and icaritin was tested at 0.9, 1.9 and 3.8 μg/mL. The cells were washed twice with PBS and lysed in total protein cell lysis buffer. Protein concentrations were determined using a BCA protein assay kit (Thermo Fisher Scientific, Waltham, MA, USA). Then, to destroy the 3-dimensional protein structure, the proteins in the loading buffer were heated at 95 °C for 5 min. An equal amount of protein from each sample was separated by SDS-PAGE on 10% SDS–polyacrylamide gels. After the protein was transferred to a polyvinylidene difluoride membrane (Millipore, Bedford, MA, USA), the membrane was incubated in blocking buffer (5% nonfat dairy milk in TBST) for 2 h and probed with various antibodies (1:1000) overnight at 4 °C. […] The changes in the protein expression levels are expressed as percentages relative to the levels measured in the corresponding control groups.

[2] = tested on: caspase-3; experiment: Western blot, caspase-3 expression in HepG2 cells; format: cell-based; conditions: 24 h, high concentration (sagittatoside A 49, icariside I 50, baohuoside I 32, icaritin 3.8 μg/mL), vs untreated cells
Experimental: as §1

| SMILES | Bax/Bcl-2 ratio [1] | caspase-3 expression [2] |
| --- | --- | --- |
| COc1ccc(-c2oc3c(CC=C(C)C)c(O)cc(O)c3c(=O)c2O[C@@H]2O[C@@H](C)[C@H](O)[C@@H](O)[C@H]2O)cc1 [baohuoside I] | increased | significant increase |
| COc1ccc(-c2oc3c(CC=C(C)C)c(O)cc(O)c3c(=O)c2O)cc1 [icaritin] | increased | significant increase |

— paper PMC10975178, “Evaluation on the Potential for Hepatotoxic Components from Herba Epimedii to Induce Apoptosis in HepG2 Cells and the Analysis of the Influence of Metabolism in Liver Microsomes” (Molecules, 2024)
